Reference: ChEMBL document CHEMBL1201862, “PubChem BioAssay data set” (2004)
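Test compounds were applied to cells in 96-well plates for 48 hours at 5 doses. At the GI50, growth is halved.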 Active and inactive are the calls of the source. Cut-off read from the data, not from the text of the source: active = GI50 up to about 1.1 µM and inactive = higher.

Key:
Experiment in all cases: DTP human tumour cell line panel, 48 h
SNB-19 = test system: SNB-19
SW-620 = test system: SW-620
MDA-MB-231 = test system: MDA-MB-231
T47D = test system: T47D
NCI-H23 = test system: NCI-H23
SK-MEL-28 = test system: SK-MEL-28
OVCAR-4 = test system: OVCAR-4
ACHN = test system: ACHN
TK-10 = test system: TK-10
NCI-H226 = test system: NCI-H226
CAKI-1 = test system: CAKI-1
HCT-15 = test system: HCT-15
SK-OV-3 = test system: SK-OV-3
HCT-116 = test system: HCT-116
KM12 = test system: KM12
MOLT-4 = test system: MOLT-4
A549 = test system: A549
UACC-62 = test system: UACC-62
COLO 205 = test system: COLO 205
EKVX = test system: EKVX

Row | Compound | GI50 (SNB-19) | GI50 (SW-620) | GI50 (MDA-MB-231) | GI50 (T47D) | GI50 (NCI-H23) | GI50 (SK-MEL-28) | GI50 (OVCAR-4) | GI50 (ACHN) | GI50 (TK-10) | GI50 (NCI-H226) | GI50 (CAKI-1) | GI50 (HCT-15) [µM] | GI50 (SK-OV-3) | GI50 (HCT-116) | GI50 (KM12) | GI50 (MOLT-4) | GI50 (A549) | GI50 (UACC-62) | GI50 (COLO 205) | GI50 (EKVX)
1 | COc1ccccc1-c1nc(-c2ccccc2O)n[nH]1 | > 100 µM (inactive) | > 100 µM (inactive) | > 100 µM (inactive) | 37.2 µM (inactive) | > 100 µM (inactive) | > 100 µM (inactive) | > 100 µM (inactive) | > 100 µM (inactive) | > 100 µM (inactive) | > 100 µM (inactive) | > 100 µM (inactive) | 45.9 | > 100 µM (inactive) | > 100 µM (inactive) | > 100 µM (inactive) | > 100 µM (inactive) | > 100 µM (inactive) | > 100 µM (inactive) | > 100 µM (inactive) | 
2 | Nc1cc(-c2ccc(Cl)cc2)nn1-c1nc2ccccc2nc1-c1ccccc1 | 47.8 µM (inactive) | > 100 µM (inactive) | > 100 µM (inactive) | 13.3 µM (inactive) |  | 79.4 µM (inactive) | 56.8 µM (inactive) | 70.6 µM (inactive) | 77.1 µM (inactive) | > 100 µM (inactive) | > 100 µM (inactive) | > 100 | > 100 µM (inactive) | > 100 µM (inactive) | > 100 µM (inactive) | 8.02 µM (inactive) | > 100 µM (inactive) | > 100 µM (inactive) | > 100 µM (inactive) | > 100 µM (inactive)
3 | CCOC(=O)/C=C(/C(=O)OCC)n1cnc2c(=O)[nH]c(NC(C)=O)nc21 | > 100 µM (inactive) | > 100 µM (inactive) | > 100 µM (inactive) | > 100 µM (inactive) | > 100 µM (inactive) | > 100 µM (inactive) | > 100 µM (inactive) | > 100 µM (inactive) | > 100 µM (inactive) | > 100 µM (inactive) | > 100 µM (inactive) | > 100 | > 100 µM (inactive) | > 100 µM (inactive) | > 100 µM (inactive) | > 100 µM (inactive) | > 100 µM (inactive) | > 100 µM (inactive) | > 100 µM (inactive) | > 100 µM (inactive)
4 | COC(=O)CC1(O)C=CC(=O)C=C1 [JACARANONE] | 5.48 µM (inactive) | 4.76 µM (inactive) | 2.66 µM (inactive) | 5.42 µM (inactive) | 2.96 µM (inactive) | 2.38 µM (inactive) | 3.82 µM (inactive) | 2.99 µM (inactive) | 4.81 µM (inactive) | 8.61 µM (inactive) | 3.83 µM (inactive) | 3.01 | 14.1 µM (inactive) | 9.77 µM (inactive) | 1.74 µM (inactive) | 1.05 µM (active) | 8.67 µM (inactive) | 2.13 µM (inactive) | 4.68 µM (inactive) | 4.02 µM (inactive)
5 | CC(C)=CCc1[nH]c2ccccc2c1C1=C(O)C(=O)C(c2c(CC=C(C)C)[nH]c3ccccc23)=C(O)C1=O | 2.03 µM (inactive) | 3.27 µM (inactive) | 1.28 µM (inactive) | 2.76 µM (inactive) | 1.91 µM (inactive) | 0.757 µM (active) | 3.58 µM (inactive) | 1.56 µM (inactive) |  | 1.73 µM (inactive) | 1.73 µM (inactive) | 1.33 | 2.11 µM (inactive) | 1.5 µM (inactive) | 1.04 µM (active) | 1.96 µM (inactive) | 0.587 µM (active) | 0.377 µM (active) | 1.63 µM (inactive) | 2.19 µM (inactive)
6 | O=C(CC(C(=O)c1ccco1)c1ccco1)c1ccco1 (stereo not drawn) |  | > 100 µM (inactive) | 78.9 µM (inactive) | > 100 µM (inactive) | > 100 µM (inactive) | > 100 µM (inactive) | 23.8 µM (inactive) | > 100 µM (inactive) | > 100 µM (inactive) | > 100 µM (inactive) | > 100 µM (inactive) |  | > 100 µM (inactive) | > 100 µM (inactive) | > 100 µM (inactive) | > 100 µM (inactive) | > 100 µM (inactive) | > 100 µM (inactive) | > 100 µM (inactive) | > 100 µM (inactive)
7 | C/C(=N\N=C(\N)OB(F)F)c1ccccn1 | > 100 µM (inactive) | > 100 µM (inactive) | 24.6 µM (inactive) | > 100 µM (inactive) | > 100 µM (inactive) | > 100 µM (inactive) | 35 µM (inactive) | 81.1 µM (inactive) | 59.7 µM (inactive) | 40.8 µM (inactive) | > 100 µM (inactive) | 93.8 | > 10 µM (inactive) | 58.5 µM (inactive) | > 100 µM (inactive) |  | > 100 µM (inactive) | 82.2 µM (inactive) | > 100 µM (inactive) | 18.5 µM (inactive)
8 | COc1cccc(/C=N/n2c(C)n[nH]c2=O)c1 | > 100 µM (inactive) | > 100 µM (inactive) | > 100 µM (inactive) | > 100 µM (inactive) | > 100 µM (inactive) | > 100 µM (inactive) | > 100 µM (inactive) | > 100 µM (inactive) |  | 95.1 µM (inactive) | 60.5 µM (inactive) | > 100 | > 100 µM (inactive) | > 100 µM (inactive) | > 100 µM (inactive) | > 100 µM (inactive) | > 100 µM (inactive) | 69.3 µM (inactive) | > 100 µM (inactive) | 32 µM (inactive)
